Format in all cases: functional
One assay has as its system L1210. Put plainly: Cytotoxicity against mouse L1210 cells.
A further assay concerns A549. Put plainly: Cytotoxicity against human A549 cells.
For the next assay, the system named is HCT-8. Put plainly: Cytotoxicity against human HCT8 cells.
Another assay deals with KB. Briefly: Cytotoxicity against human KB cells.
The subject of another assay is P388. Briefly: Cytotoxicity against mouse P388 cells.
The mark [1] stands for this setting: read-out: ED50 (the source's name).

SMILES strings stand for the structures. In brackets after ≈: the same amount, converted by molar mass. Activity calls are given as the source filed them. No cut-off for these calls is given here.

`C[N+]1([O-])CCc2cc3c(c4c2[C@H]1[C@@H](O)c1ccccc1-4)OCO3` (stereo not given in full): the outcome in the assay on L1210, in the assay on A549, in the assay on HCT-8, in the assay on KB and with P388 was inactive.

As to `COc1cc2c(cc1O)C(=O)c1c(C)ccnc1-2`, the result in the assay on L1210, in the assay with A549, in the assay with HCT-8, with KB and in the assay on P388 was inactive.

In the case of `COc1cc2c(cc1OC)-c1nccc(C)c1C2=O`, the outcome in the assay on L1210, with A549, with HCT-8, in the assay with KB and in the assay on P388 was inactive.

Take `O[C@H]1c2ccccc2-c2c3c(cc4c2[C@@H]1NCC4)OCO3`: the result in the assay on L1210, with A549, in the assay on HCT-8, with KB and with P388 was inactive.

Take `O=C1c2ccccc2-c2c3c(cc4ccnc1c24)OCO3` [LIRIODENINE]: the EC50 in the assay with L1210 (setting [1]) came out at 2.33 µg/mL (≈ 8.46 µM); in the assay on A549 (setting [1]), 0.72 µg/mL (≈ 2.62 µM); in the assay with HCT-8 (setting [1]), 0.7 µg/mL (≈ 2.54 µM); with KB (setting [1]) it was 1 µg/mL (≈ 3.63 µM); with P388 (setting [1]), 0.57 µg/mL (≈ 2.07 µM).

Consider `COc1c(O)cc2c(c1OC)-c1nccc(C)c1C2=O`, for which the result in the assay with L1210, with A549, in the assay on HCT-8, with KB and in the assay with P388 was inactive.

For the origin of these results see ChEMBL document CHEMBL1150187, “Two new natural azafluorene alkaloids and a cytotoxic aporphine alkaloid from Polyalthia longifolia” (1990).
